What was measured:
A549 = test: Cytotoxicity against human A549 cells after 96 hrs by microplate reader assay; format: functional, cell-based; conditions: A549, 96 h
HT-29 = test: Cytotoxicity against human HT-29 cells after 96 hrs by microplate reader assay; format: functional, cell-based; conditions: HT-29, 96 h

CC[C@@]12CCCN(CCc3c([nH]c4ccccc34)CC1)C2 was tested, and the IC50 (A549) was > 30 µM and the IC50 (HT-29) was 30 µM.

With CC[C@]12CCCn3c(COC)cc(c31)-c1ccccc1NC(=O)CC2 the IC50 (A549) was 5.38 µM and the IC50 (HT-29) was 4.67 µM.

With CC[C@]12CCCn3c(CO)cc(c31)-c1ccccc1NC(=O)CC2 the IC50 (A549) was 8.21 µM and the IC50 (HT-29) was 8.89 µM.

For CCOCc1cc2c3n1CCC[C@]3(CC)CCC(=O)Nc1ccccc1-2, the IC50 (A549) was 7.44 µM and the IC50 (HT-29) was 6.39 µM.

CC(=O)O[C@@]12CO[C@@H]1C[C@H](O)[C@@]1(C)C(=O)[C@H](O)C3=C(C)[C@@H](OC(=O)[C@H](O)[C@@H](NC(=O)OC(C)(C)C)c4ccccc4)C[C@@](O)([C@@H](OC(=O)c4ccccc4)[C@H]21)C3(C)C [DOCETAXEL] was tested, and the IC50 (A549) was 0.000495 µM and the IC50 (HT-29) was 0.000334 µM.

With CC[C@@]12CCCN(CCc3c(n(COC)c4ccccc34)CC1)C2 [KOPSIYUNNANINE D] the IC50 (A549) was > 30 µM and the IC50 (HT-29) was 30 µM.

CC[C@]12CCCn3ccc(c31)-c1ccccc1NC(=O)CC2 [RHAZINILAM] showed an IC50 (A549) of 0.35 µM and an IC50 (HT-29) of 0.35 µM.
